Data as given in patent publication US12692274B2, “Tetrahydroisoquinoline derivatives for the treatment of red blood disorders and inflammatory diseases” (Sanofi, priority 2020, dated 2026).
Values joined by “and” are separate entries in the source; they are usually repeats but may differ in a detail not shown here. Identical values can stand only once. Like-named read-outs stand apart in the source and are kept apart here.

Assays:
[1] = system: NQO1 activation in BEAS-2B cells; assay: BEAS-2B cellular MTT assay of NQO1 activation, 0% HSA; assay type: cell-based; details: Serum Free W, read-out: BEAS EC50 (nM) Serum Free W
Experimental: The growth rate of the BEAS-2B cells changed based on the lot of BEGM SingleQuots in the BEGM media. The cell growth rate was determined for each lot of SingleQuots. Ideally, cells were thawed into media with the new lot of SingleQuots and grown for two passages before testing; however, growing an active culture in the new lot of media for two to three passages before testing was also acceptable. Until the cell growth rate was determined, cells were seeded at different densities (cells/cm^2) in multiple tissue culture flasks in order to avoid the cells becoming more than 70% confluent. Cells should not go above 70% confluent as the cells differentiate when they become confluent. After the cells were grown in the new lot of media as described above, the number of cells per well needed to seed in the collagen plates was determined by seeding different numbers of cells per well and incubating for 48 hours. Cell confluency was checked after 48 hours and a cell number that results in just below to just above confluency was chosen for future plate seeding. Cell confluency in the assay plate was 95-100% confluent after 48 hours.
Cell media consists of BEBM basal media with the BEGM SingleQuots added. SingleQuots vials were thawed in the tissue culture hood, and GA-1000 (Gentamicin-Amphotericin) was not added.
If complete media was to be used immediately, BEBM basal media was warmed to room temperature in the hood, but not as high as 37° C. When the media was made for future use, SingleQuots were added to cold BEBM. One at a time, the SingleQuots components (except GA-1000) were added to the BEBM media. After removal of each component from the vial, the vial was rinsed with 0.5-1 mL of BEBM (depending on the volume the vial could hold) and added to the bottle of BEBM. Once all components were added, the label that comes with the SingleQuots kit was put on the bottle of media and the date was recorded. The bottle of media was mixed by gentle shaking. The media was not filtered. This media was stored at 4° C., with any leftover media disposed of one month after the date the SingleQuots were added.
BEAS-2B Cell Splitting Protocol:
First, Trypsin was warmed to 37° C. in the water bath. The media was then warmed to room temperature by letting it sit in the tissue culture hood, but not as high as 37° C. The media was aspirated from flask(s) and the flask(s) were washed with PBS. From 1 to 1.5 mL of warm trypsin were added to each flask and incubated at 37° C. until cells came off the flask on their own (~8-10 minutes), with no vigorous tapping on the flask to detach the cells.
Media was added to each flask to a total volume of 8-10 mL per flask and transferred to 15 mL conical tube(s). The cells were spun down at 120 g for 5 minutes, level 5 brake. The cells can be spun down between 100 and 150 g. Next the media was aspirated and the cell pellet was resuspended in fresh media by pipetting up and down and flicking the tube side to side. Any clumps of cells that remained were allowed to settle to the bottom of the tube before the top suspension was transferred into another tube, leaving about 1 mL of media in the original tube. The 1 mL of media and cell clumps were mixed with a single channel p1000 pipette, and any remaining clumps were removed before adding the cells in suspension to the other tube. The suspension was mixed with a pipette, an aliquot was removed, and the cells were counted. The amount of cells/cm^2 desired was calculated and the required volume of cells was added to tissue culture flasks. For example, use of SingleQuots with ~6000 cells/cm^2 was appropriate for a three day incubation and ~3000 cells/cm^2 for a five day incubation. Optimal cell density differed depending on lot of SingleQuots. The flasks were incubated at 37° C. in 5% CO2.
Day One: Seeding BEAS-2B Cells in Collagen Plates:
Plate(s) were either seeded with 0.3% or 0% HSA. While the protocol was similar for both conditions any differences are noted herein below. […]

[2] = target: HIS-Keap1 full length / Biotin-Nrf2 (16-mer) (Homo sapiens, UniProt Q14145); assay: biochemical
HIS-Keap1 full length / Biotin-Nrf2 (16-mer), sequence (Q14145 whole entry): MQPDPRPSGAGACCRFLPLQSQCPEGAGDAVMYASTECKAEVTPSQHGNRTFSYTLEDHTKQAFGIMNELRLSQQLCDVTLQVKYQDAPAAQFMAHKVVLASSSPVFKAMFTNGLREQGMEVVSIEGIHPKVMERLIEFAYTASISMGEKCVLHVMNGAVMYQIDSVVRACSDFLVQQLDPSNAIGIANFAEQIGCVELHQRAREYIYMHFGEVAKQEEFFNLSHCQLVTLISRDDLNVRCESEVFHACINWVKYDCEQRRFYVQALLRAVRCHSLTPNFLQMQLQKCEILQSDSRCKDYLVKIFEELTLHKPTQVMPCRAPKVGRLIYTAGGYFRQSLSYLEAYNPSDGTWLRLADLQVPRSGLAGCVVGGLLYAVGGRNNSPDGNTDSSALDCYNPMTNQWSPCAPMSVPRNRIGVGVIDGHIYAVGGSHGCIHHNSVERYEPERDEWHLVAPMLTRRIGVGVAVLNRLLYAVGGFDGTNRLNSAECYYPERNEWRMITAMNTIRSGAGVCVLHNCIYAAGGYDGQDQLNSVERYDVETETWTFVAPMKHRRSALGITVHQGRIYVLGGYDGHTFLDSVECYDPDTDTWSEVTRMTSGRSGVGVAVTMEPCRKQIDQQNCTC

Row | Compound | IC50 [2] | also measured
1 | Cc1cc2cnc1OCC/C=C/Cc1ccc(cc1)C(=O)N1CCc3ccc(cc3C1)[C@@H]2[C@H](C)C(=O)O [Compound 74] | 24.4 nM and 36.4 nM | EC50 ([1]; Homo sapiens): 4.7 nM; EC50 [1]: 7.1 nM
2 | Cc1c2cccc1C(=O)N1CCc3ccc(cc3C1)C(CC(=O)O)c1ccc3c(c1)nnn3CC/C=C/CO2 (centres unmarked) [Compound 427] | 9.2 nM and 9.9 nM | 
3 | Cc1ccc2cc1C(=O)N1CCc3ccc(cc3C1)C(CC(=O)O)c1ccc3c(c1)nnn3CCCCCO2 (centres unmarked) [Compound 422] | 11.3 nM and 12.2 nM | 
4 | O=C(O)CC1c2ccc3c(c2)CN(CC3)C(=O)c2cccc(c2)OCCCCc2nnc3cc1ccn23 (centres unmarked) [Compound 415] | 13200 nM and 8750 nM | 
5 | Cc1c2ccc3c1nnn3CCCCCCc1ccc(c3ccn(C)c13)C(=O)N1CCc3ccc(cc3C1)[C@@H]2CC(=O)O [Compound 32] | 0.5 nM and 0.6 nM | 
6 | Cc1c2cccc1C(=O)N1CCc3ccc(cc3C1)C(CC(=O)O)c1ccc3c(c1)nnn3CCCCO2 (centres unmarked) [Compound 417] | 42.7 nM and 35.2 nM | 
7 | Cc1nc2ncc1C(CC(=O)O)c1ccc3c(c1)CN(CC3)C(=O)c1c(F)cc(cc1F)OCCCCO2 (centres unmarked) [Compound 197] | 164 nM and 148 nM | 
8 | Cc1ccc2cc1C(=O)N1CCc3ccc(cc3C1)C(CC(=O)O)c1ccc3c(c1)nnn3CC/C=C/CO2 (centres unmarked) [Compound 426] | 9.2 nM and 11.6 nM | 
9 | CC(C)(C(=O)O)C1c2ccc3c(c2)CN(CC3)C(=O)c2ccc(cc2F)CCCCCn2nnc3cc1ccc32 (centres unmarked) [Compound 271] | 1.9 nM (2×) and 1.7 nM | 
10 | Cc1ccc2cc1C(=O)N1CCc3ccc(cc3C1)C(CC(=O)O)c1ccc3c(c1)nnn3C/C=C/CO2 (centres unmarked) [Compound 432] | 93.1 nM and 93.3 nM | 
11 | O=C(O)CC1c2ccc3c(c2)CN(CC3)C(=O)c2cccc(c2)OCCCCCc2nnc3cc1ccn23 (centres unmarked) [Compound 416] | 2420 nM and 348 nM | 
12 | Cc1c2ccc3c1nnn3CCCCCCc1ccc3c(c1)cc(n3C)C(=O)N1CCc3ccc(cc3C1)[C@@H]2[C@@H](C)C(=O)O [Compound 28] | 0.4 nM and 0.5 nM | 
13 | CC(C)(C(=O)O)C1c2ccc3c(c2)CN(CC3)C(=O)c2c(F)cc(cc2F)CCCCCn2nnc3cc1ccc32 (centres unmarked) [Compound 282] | 0.4 nM (2×) and 0.3 nM (3×) and 1.1 nM | 
14 | Cc1ccc2cc1OCCCCn1nnc3cc(ccc31)C(CC(=O)O)c1ccc3c(c1)CN(CC3)C2=O (centres unmarked) [Compound 428] | 1090 nM and 962 nM | 
15 | Cc1c2ccc3c1nnn3CCCCCCc1ccc3c(c1)cc(n3CCC(F)(F)F)C(=O)N1CCc3ccc(cc3C1)[C@@H]2CC(=O)O [Compound 31] | 2.1 nM and 1.2 nM | 
16 | O=C(O)CC1c2ccc3c(c2)CN(CC3)C(=O)c2ccc(cc2)OCC=CCn2nnc3cc1ccc32 (mixture of isomers) [Compound 419, 2-[(12E)-20-oxo-15-oxa-8,9,10,21-tetrazahexacyclo[19.5.3.216,19.13,7.06,10.024,28]dotriaconta-1(27),3,5,7(32),8,12,16(31),17,19(30),24(28),25-undecaen-2-yl]acetic Acid] | 5.7 nM and 19.1 nM and 16.8 nM and 10.8 nM | 
17 | Cc1ccc2cc1OC/C=C/CCn1nnc3cc(ccc31)C(CC(=O)O)c1ccc3c(c1)CN(CC3)C2=O (centres unmarked) [Compound 418] | 390 nM and 381 nM | 
18 | CC(C)(C(=O)O)[C@H]1c2ccc3c(c2)CN(CC3)C(=O)c2c(F)cc(cc2F)OCCCCCCn2nnc3cc1ccc32 [Compound 235] | 0.5 nM and 0.6 nM (2×) | 
19 | Cc1c2ccc3c1nnn3CCCCCOc1cccc(c1)C(=O)N1CCc3ccc(cc3C1)C2CC(=O)O (centres unmarked) [Compound 421] | 10.1 nM and 8.4 nM | 
20 | Cc1c2ccc3nn(nc13)CC/C=C/COc1cccc(c1)C(=O)N1CCc3ccc(cc3C1)C2CC(=O)O (centres unmarked) [Compound 425] | 4320 nM and 5390 nM | 
21 | Cc1cc2ccc1C(=O)N1CCc3ccc(cc3C1)[C@@H](C(C)(C)C(=O)O)c1ccc3c(c1)nnn3CCCCCCO2 [Compound 237] | 22.9 nM and 36.1 nM and 70.2 nM and 28.2 nM and 29.9 nM | 
22 | Cc1c2ccc3c1nnn3CCCCCc1ccc(c3c1ccn3C)C(=O)N1CCc3ccc(cc3C1)[C@@H]2CC(=O)O [Compound 26] | 0.4 nM and 0.3 nM | 
23 | Cc1c2ccc3c1nnn3CCCCCCOc1cnc(nc1)C(=O)N1CCc3ccc(cc3C1)C2CC(=O)O (centres unmarked) [Compound 198] | 0.5 nM and 1.2 nM and 1 nM | 
24 | Cc1c2cccc1C(=O)N1CCc3ccc(cc3C1)C(CC(=O)O)c1ccc3c(c1)nnn3C/C=C/CO2 (centres unmarked) [Compound 429] | 112 nM and 82.3 nM | 

Row | Compound | IC50 [2] | also measured
25 | CC(C)(C(=O)O)C1c2ccc3c(c2)CN(CC3)C(=O)c2ccc(cc2F)CCCCCCn2nnc3cc1ccc32 (centres unmarked) [Compound 281] | 0.4 nM (2×) and 0.5 nM (2×) and 1.4 nM and 0.6 nM | 
26 | Cc1cc2ccc1C(=O)N1CCc3ccc(cc3C1)C(CC(=O)O)c1ccc3c(nnn3CCCCC2)c1F (centres unmarked) [Compound 147] | 0.4 nM and 0.3 nM | 
27 | O=C(O)CC1c2ccc3c(c2)CN(CC3)C(=O)c2cccc(c2)OCCCCn2nnc3ccc1cc32 (centres unmarked) [Compound 435] | > 30000 nM | 
28 | Cc1c2ccc3c1nnn3C/C=C/CCc1ccc3c(c1)cc(n3C)C(=O)N1CCc3ccc(cc3C1)[C@H]2[C@H](C)C(=O)O [Compound 360] | 0.9 nM | 
29 | O=C(O)CC1c2ccc3c(c2)CN(CC3)C(=O)c2cccc(c2)OCCOCCn2nnc3cc1ccc32 (centres unmarked) [Compound 410] | 1050 nM and 1900 nM | 
30 | O=C(O)CC1c2ccc3c(c2)CN(CC3)C(=O)c2cccc(c2)OC/C=C/CCn2nnc3ccc1cc32 (centres unmarked) [Compound 436] | 2670 nM and 3410 nM | 
31 | Cc1c2ccc3c1nnn3CCCCCCc1ccc3c(c1)cc(n3C)C(=O)N1CCc3ccc(cc3C1)[C@H]2[C@@H](C)C(=O)O [Compound 29] | 192 nM and 103 nM | 
32 | Cc1c2ccc3c1nnn3CCCCCCc1ccc(c3c1ccn3C)C(=O)N1CCc3ccc(cc3C1)[C@@H]2CC(=O)O [Compound 27] | 0.4 nM and 0.3 nM | 
33 | O=C(O)CC1c2ccc3c(c2)CN(CC3)C(=O)c2cccc(c2)OC/C=C/CCn2nnc3cc1ccc32 (centres unmarked) [Compound 439] | 52.7 nM and 121 nM and 119 nM and 122 nM and 106 nM | 
34 | Cc1ccc2cc1C(=O)N1CCc3ccc(cc3C1)C(CC(=O)O)c1ccc3c(c1)nnn3CCCCO2 (centres unmarked) [Compound 431] | 102 nM and 96.9 nM | 
35 | Cc1c2cccc1C(=O)N1CCc3ccc(cc3C1)C(CC(=O)O)c1ccc3c(c1)nnn3CCCCCO2 (centres unmarked) [Compound 420] | 8.5 nM and 8.3 nM | 
36 | O=C(O)CC1c2ccc(nc2)OCCCCCOc2cccc(c2)C(=O)N2CCc3ccc1cc3C2 (centres unmarked) [Compound 344] | 4410 nM and 4850 nM | 
37 | O=C(O)CC1c2ccc(nc2)OCC/C=C\COc2cccc(c2)C(=O)N2CCc3ccc1cc3C2 (centres unmarked) [Compound 345] | 2900 nM and 3360 nM | 
38 | Cc1c2ccc3c1nnn3CCCCCCc1ccc3c(c1)cc(n3C)C(=O)N1CCc3ccc(cc3C1)[C@H]2[C@H](C)C(=O)O [Compound 30] | 103 nM and 159 nM | 
39 | O=C(O)CC1c2ccc3c(c2)CN(CC3)C(=O)c2ccc(cc2)CCCCCn2nnc3c(Cl)c1ccc32 (centres unmarked) [Compound 249] | 1.1 nM and 1.3 nM | 
40 | O=C(O)CC1c2ccc3c(c2)CN(CC3)C(=O)c2ccc(cc2)OCCOCCn2nnc3cc1ccc32 (centres unmarked) [Compound 412] | 28.7 nM and 47.9 nM | 
41 | Cc1c2ccc3c1nnn3CCOCCOc1cccc(c1)C(=O)N1CCc3ccc(cc3C1)C2CC(=O)O (centres unmarked) [Compound 414] | 106 nM and 313 nM | 
42 | O=C(O)CC1c2ccc3c(c2)CN(CC3)C(=O)c2ccc(cc2)OC/C=C/CCn2nnc3cc1ccc32 (centres unmarked) [Compound 424] | 4.8 nM and 4.7 nM and 2.2 nM and 0.5 nM | 
43 | O=C(O)C[C@@H]1c2ccc3c(c2)CN(CC3)C(=O)c2cccc(c2)OCCCCCn2nnc3cc1ccc32 [Compound 433] | 287 nM and 204 nM | 
44 | Cc1c2ccc3c1nnn3CCCCCc1ccc(c3ccn(C)c13)C(=O)N1CCc3ccc(cc3C1)[C@@H]2CC(=O)O [Compound 33] | 0.4 nM and 0.3 nM | 
45 | Cc1c2ccc3c1nnn3CCOCCOc1ccc(cc1)C(=O)N1CCc3ccc(cc3C1)C2CC(=O)O (centres unmarked) [Compound 398] | 5.2 nM and 17.3 nM | 
46 | Cc1c2cccc1C(=O)N1CCc3ccc(cc3C1)C(CC(=O)O)c1ccc3c(nnn3CCCCCO2)c1C (centres unmarked) [Compound 408] | 1.6 nM and 1.5 nM and 13.2 nM and 5 nM | 
47 | O=C(O)CC1c2ccc3c(c2)CN(CC3)C(=O)c2cccc(c2)OC/C=C/CCn2nc3ccc1cc3n2 (centres unmarked) [Compound 437] | 219 nM and 234 nM | 
48 | O=C(O)CC1c2ccc3c(c2)CN(CC3)C(=O)c2cccc(c2)OCCCCCn2nnc3cc1ccc32 (centres unmarked) [Compound 440] | 64.9 nM and 70.3 nM and 114 nM and 113 nM | 
